From article PMC7497692 (Investigational New Drugs, 2020)
Where “and” joins values, the source holds several entries; their conditions need not be identical. Identical values can stand only once.

What was measured:
[1] = parameters: method as in printed; details: preclinical results, bile-canaliculated rats, [14C]-tepotinib; ref not given; cited from earlier work
[2] = Mass balance: excretion of radioactivity in urine and feces after oral [14C]-tepotinib (part A); type: in vivo, human healthy male volunteers
Method: (§1) Participants were hospitalized from day 1 to day 16 of the study, and further assessed on days 19, 22, and 25 (trial end). […] Pre-dose feces and urine samples were collected on day 1 and day 2, respectively. Urine was collected at 4- to 12-h intervals on day 1 and every 24 h thereafter up to day 16. Feces were collected every 24 h up to day 16. Provision was made to collect further samples up to day 39 if >1% of the administered dose was detectable in the total (urine and feces) excreta per day on two consecutive measurements.
Total radioactivity in blood, plasma, urine, and feces samples, and quick counts in urine and feces samples were determined at the bioanalytical laboratory of PRA (Assen, The Netherlands) using liquid scintillation counting (LSC). Scintillation cocktail Ultima Gold™ (5 mL; Perkin Elmar, Waltham, Massachusetts, USA) was directly spiked into 250 μL plasma and 1000 μL urine samples, respectively, whereas 300 μL aliquots of blood samples were solubilized and decolorized before adding 18 mL of the scintillation cocktail prior to LSC. Feces samples were (quantitatively) homogenized with one or two weight equivalents of water, and an accurately weighted aliquot of approximately 500 mg of the homogenate was dried at 50 °C for at least 3 h. After addition of 100 μL combustion aid, the dried samples were combusted in a sample oxidizer model 307 (Perkin Elmer, Waltham, Massachusetts, USA) using 7 mL CarboSorb® E as an absorber agent for carbon dioxide. At the end of the combustion cycle, the absorber was mixed with 13 mL of the scintillant PermaFluor® E. All scintillation counting using either low-level or normal count modes was carried out in duplicate using a Tri-Carb 3100 TR liquid scintillation analyzer (Perkin Elmer, Waltham, Massachusetts, USA), in compliance with analytical procedures validated by the PRA.
The maximum plasma concentration (Cmax) and time to reach maximum concentration (tmax) were derived directly from the plasma concentration–time data. Lag time (tlag) was the time prior to the first measurable (non-zero) concentration. The area under the plasma concentration–time curve from 0 to t (last measurable concentration; AUC0–t) was calculated using a mixed log–linear trapezoidal method. Area under the plasma concentration–time curve until the last sampling time (AUCall), which corresponds to AUC0–240 h within the observation period, was used for metabolite calculations. Amounts excreted in urine, feces, and total (urine + feces) were calculated as the sum of amounts (concentration multiplied by volume) for each collection from time 0 to time t. The terminal rate constant (λz) was used to estimate the terminal half-life (t½) (ln 2/λz), and the area under the concentration–time curve from time 0 to infinity (AUC0–∞). Total body clearance (CL) and apparent body clearance (CL/f) were determined by dose/AUC0–∞, and total volume of distribution (Vz) and apparent volume of distribution (Vz/f) were calculated by dose/(AUC0–∞*λz) after IV and oral administration, respectively. Volume of distribution of the central compartment (Vc) was derived by dividing the dose by the initial drug plasma concentration after IV administration. Absolute bioavailability was calculated as F = (AUCoral/doseoral)/(AUCIV/doseIV) × 100. The ratios (%) AUCtepotinib or metabolite/AUCtotal radioactivity were calculated as a percentage of the molar AUCs.

[3] = Oral PK of tepotinib and total radioactivity in plasma and blood (part A); type: in vivo, human healthy male volunteers; details: min–max, n=6
Method: as §1
In brief, the isotopically labeled internal standard [^2H]-MSC2156119A was added to 20 μL K2-ethylenediaminetetraacetic acid (EDTA) plasma. […] Samples were centrifuged and 10 μL aliquots of the supernatant were injected onto an Acquity Charged Surface Hybrid™ (CSH) C18 column (2.1 × 50 mm; […]; Waters, Milford, Massachusetts, USA). Separation was carried out using a mobile phase gradient (eluent A: water/formic acid [100 + 1, v/v]; eluent B: acetonitrile/formic acid [100 + 1, v/v]) with a flow rate of 0.6 mL/min. […] The lower limit of quantification (LLOQ) was 5.00 ng/mL, and the calibration standard responses were linear over the range between 5.00 and 2500 ng/mL using a weighted (1/x^2) linear regression.
Total radioactivity in blood, plasma, urine, and feces samples, and quick counts in urine and feces samples were determined at the bioanalytical laboratory of PRA (Assen, The Netherlands) using liquid scintillation counting (LSC). Scintillation cocktail Ultima Gold™ (5 mL; Perkin Elmar, Waltham, Massachusetts, USA) was directly spiked into 250 μL plasma and 1000 μL urine samples, respectively, whereas 300 μL aliquots of blood samples were solubilized and decolorized before adding 18 mL of the scintillation cocktail prior to LSC. Feces samples were (quantitatively) homogenized with one or two weight equivalents of water, and an accurately weighted aliquot of approximately 500 mg of the homogenate was dried at 50 °C for at least 3 h. […]
The maximum plasma concentration (Cmax) and time to reach maximum concentration (tmax) were derived directly from the plasma concentration–time data. […] The area under the plasma concentration–time curve from 0 to t (last measurable concentration; AUC0–t) was calculated using a mixed log–linear trapezoidal method. […] Amounts excreted in urine, feces, and total (urine + feces) were calculated as the sum of amounts (concentration multiplied by volume) for each collection from time 0 to time t. […] Total body clearance (CL) and apparent body clearance (CL/f) were determined by dose/AUC0–∞, and total volume of distribution (Vz) and apparent volume of distribution (Vz/f) were calculated by dose/(AUC0–∞*λz) after IV and oral administration, respectively. […]

[4] = Safety assessment (TEAEs, NCI-CTCAE v4.0); type: in vivo, human healthy male volunteers
Method: Treatment-emergent adverse events (TEAEs), changes in laboratory tests, ECG, vital signs, and physical examinations were assessed and graded using the National Cancer Institute Common Terminology Criteria for Adverse Events (NCI-CTCAE) version 4.0. All safety endpoints across both parts of the study were analyzed descriptively.

[5] = cited from earlier work
[6] = geometric mean of n=6, % of total radioactive dose, oral part A, listed as [^14C]-tepotinib
[7] = individual subjects 1–6, % of total radioactive dose, single oral 498 mg tepotinib + 2.67 MBq [14C]-tepotinib
[8] = maximum of n=6, % of total radioactive dose, oral part A
[9] = median of n=6, % of total radioactive dose, oral part A, listed as [^14C]-tepotinib
[10] = minimum of n=6, % of total radioactive dose, oral part A
[11] = range of n=6, % of oral [14C]-tepotinib dose
[12] = tepotinib in plasma, median, single oral 498 mg capsules

For `CN1CCC(COc2cnc(-c3cccc(Cn4nc(-c5cccc(C#N)c5)ccc4=O)c3)nc2)CC1` [Tepotinib], the “biliary excretion of radioactivity” value [1] is listed as “a predominant fraction of radioactivity is excreted unchanged via the bile”, the “time up to which radioactivity was observed in urine” value ([2]; after dosing, below LLOQ at 312 and 336 h in two participants) is listed as “up to 360 h” and the “time of first radioactivity detected in feces” value ([2]; after oral dose, part A) is listed as 24 to 48 h. The “time within which radioactivity was observed in urine” value ([2]; first collection period, part A) was no more than 4 h, the “Ae0–t total, Geometric mean” value ([2]; geometric mean of n=6, % of total radioactive dose, oral part A) was 91.90% and the “Ae0–t feces, Geometric mean” value [2, 6] was 77.9% and 77.87%. The “Ae0–t urine, Geometric mean” value [2, 6] was 13.6% and 13.61%, the radioactivity not recovered ([2]; geometric mean, pie chart Fig. 1, oral part A) was 8.5% and the “Ae0–t feces” value [2, 7] was 79.48% and 77.92% and 69.40% and 76.89% and 82.53% and 81.76%. The “Ae0–t total (urine + feces)” value [2, 7] was 88.28% and 91.60% and 87.12% and 93.36% and 94.46% and 96.93%, the “Ae0–t urine” value [2, 7] was 8.80% and 13.68% and 17.72% and 16.47% and 11.93% and 15.17% and the “Ae0–t feces, Max” value [2, 8] was 82.53%. The “Ae0–t total, Max” value [2, 8] was 96.93%, the “Ae0–t urine, Max” value [2, 8] was 17.72% and the “Ae0–t feces, Median” value [2, 9] was 78.7%. The “Ae0–t total, Median” value [2, 9] was 92.5% and 92.48%, the “Ae0–t urine, Median” value [2, 9] was 14.4% and 14.43% and the “Ae0–t feces, Min” value [2, 10] was 69.40%. The “Ae0–t total, Min” value [2, 10] was 87.12%, the “Ae0–t urine, Min” value [2, 10] was 8.80% and the “time up to which excretion of radioactivity in feces was noted” value ([2]; post-dose, all participants, part A) was “up to 360 h”. For the same compound, the “radioactivity excreted in feces, range” value [2, 11] was 69.4–82.5%, the “radioactivity excreted in urine, range” value [2, 11] was 8.8–17.7% and the “[14C]-tepotinib dose recovered in excreta per day” value ([2]; two consecutive measurements, days 15 and 16, all subjects) was less than 1%. For the same compound, the t½ ([3]; tepotinib in plasma, geometric mean (geometric CV%), single oral 498 mg capsules) was 33 h, the tlag [3, 12] was 2 h and the tmax [3, 12] was 9 h. The tlag ([3]; total radioactivity in plasma, median, oral part A) was 2.5 h, the “number of TEAEs of grade one severity” value ([4]; NCI-CTCAE, of 19 TEAEs) was 17 and the “deaths, serious or other significant adverse events” value ([4]; both parts) was “neither deaths, serious adverse events, nor other significant adverse events were reported”. For the same compound, the “volunteers who experienced TEAEs” value ([4]; both parts, single 500 mg dose) was 75%, the “healthy volunteers who experienced TEAEs” value ([4]; both parts, single oral 500 mg) was “Nine of 12” and the “number of TEAEs” value ([4]; in nine of 12 volunteers) was 19. The “number of TEAEs judged treatment related” value ([4]; of 19 TEAEs) was “Eight”, the tolerability ([4]; single oral dose of 500 mg, healthy volunteers) was “well tolerated” and the “main binding partners in plasma” value [5] was “human serum albumin and α-acid glycoprotein”. For the same compound, the “unbound fraction of tepotinib in human plasma” value ([5]; in vitro, concentration range 0.3–10 μM) was 1.6–3.4%.
